Drawing on ChEMBL document CHEMBL2046438, “Indole alkaloids from Geissospermum reticulatum” (J Nat Prod, 2012), this text covers GI50 and Activity for ten compounds.

The structures appear in SMILES notation. Converted amounts (≈) assume the structure as drawn. The source made the active and inactive calls. No cut-off for these calls is given here.

The subject of one data set is Leishmania infantum. In words: Leishmanicidal activity against promastigote form of Leishmania infantum PB75 after 48 hrs by modified colorimetric method. Particulars: PB75, 48 h. It is filed as functional.
A further data set has as its system CHO. In words: Cytotoxicity against CHO cells assessed as cell viability at 1 to 100 ug/ml after 48 hrs by MTT colorimetric assay. In kind it is cell-based, Cricetulus griseus. The conditions noted are these: chinese hamster.
For data set [1], the system named is Trypanosoma cruzi. The experiment in a line: Antitrypanosomal activity against epimastigote form of Trypanosoma cruzi Y at 1 to 100 ug/ml after 72 hrs by modified MTT colorimetric assay. In kind it is functional, organism-based. For orientation: Formazan colour is commonly taken as a measure of viable cells.
Data set [2] is described as follows: Cytotoxicity against CHO cells assessed as cell viability after 48 hrs by MTT colorimetric assay. In kind it is cell-based, Cricetulus griseus. Particulars: chinese hamster.
The test system of data set [3] is Trypanosoma cruzi. In words: Antitrypanosomal activity against epimastigote form of Trypanosoma cruzi Y after 72 hrs by modified MTT colorimetric assay. It is filed as functional.

`COc1cc(O)c2c(c1)[C@]13CCN4CC[C@H](C[C@@H]1N2C(C)=O)C1=CCO[C@]143` showed a concentration for 50% growth inhibition (GI50) in the data set with Leishmania infantum of more than 100 µg/mL.

Take `CCc1ccc2c3[nH]c4ccccc4c3cc[n+]2c1.[Cl-]` [FLAVOPEREIRINE]: the Activity entry in the data set with CHO is on record as “Toxic”. In addition, the result in the data set on Trypanosoma cruzi [1] was Active.

The compound `COc1ccc2c(c1O)N(C(C)=O)[C@H]1C[C@@H]3CCN(C)CC[C@@]21C(=O)[C@]31O[C@H]1C` registered a GI50 with Leishmania infantum of more than 100 µg/mL.

On to `CC1CS(=O)(=O)CCN1/N=C/c1ccc([N+](=O)[O-])o1` (stereo not drawn) [NIFURTIMOX], for which, in data set [2], the 50% growth inhibitory concentration (GI50) at 48 h is 13.9 µg/mL (≈ 48.4 µM).

`C[C@@H]1[C@H](O)[C@@H](C)/C=C/C=C/C=C/C=C/C=C/C=C/C=C/[C@H](O[C@@H]2O[C@H](C)[C@@H](O)[C@H](N)[C@@H]2O)C[C@@H]2O[C@](O)(C[C@@H](O)C[C@@H](O)[C@H](O)CC[C@@H](O)C[C@@H](O)CC(=O)O[C@H]1C)C[C@H](O)[C@H]2C(=O)O` [AMPHOTERICIN B]: the GI50 at 48 h in data set [2] was determined as 10.3 µg/mL (≈ 11.1 µM).

On to `C/C=C1/C(=O)[C@@]23CCN(C)CC[C@H]1C[C@@H]2N(C(C)=O)c1c3ccc(OC)c1O`, for which the GI50 with Leishmania infantum was more than 100 µg/mL.

The compound `CCCC(=O)N1c2c(O)cccc2[C@]23CCN4CC[C@H](C[C@H]12)C1=CCO[C@]143` came in with a 50% growth inhibitory concentration (GI50) with Leishmania infantum of 52.2 µg/mL (≈ 142 µM).

For the compound `CC(=O)N1c2c(O)cccc2[C@]23CCN4CC[C@H](C[C@H]12)C1=CCO[C@]143` [GEISSOSPERMIDINE], in the data set on Leishmania infantum, the GI50 is more than 100 µg/mL.

`CC[C@@]12CCCN3CC[C@]4(c5cccc(O)c5N(C(C)=O)[C@@H]4CC1)[C@H]32`: the GI50 with Trypanosoma cruzi [3] was 41.7 µg/mL (≈ 122 µM); with Leishmania infantum, 7.7 µg/mL (≈ 22.6 µM). Besides, the GI50 at 48 h in data set [2] worked out at 16.7 µg/mL (≈ 49.1 µM).

Regarding `C/C=C1\C(=O)[C@@]23CCN(C)CC[C@H]1C[C@@H]2N(C(C)=O)c1c3ccc(OC)c1O`, the concentration for 50% growth inhibition (GI50) with Leishmania infantum was more than 100 µg/mL.

Broadly, the GI50 is the concentration that inhibits growth by half.
